# Target: T1, GPX4 (Homo sapiens, UniProt P36969)
# T1 sequence (P36969 1-170 isoform P36969-2): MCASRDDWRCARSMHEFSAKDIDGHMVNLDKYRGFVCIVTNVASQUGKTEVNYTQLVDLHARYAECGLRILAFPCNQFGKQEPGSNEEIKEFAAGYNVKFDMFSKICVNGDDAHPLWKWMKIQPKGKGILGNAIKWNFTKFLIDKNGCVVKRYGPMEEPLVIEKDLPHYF
# Experiment: GPX4 activity assay in cell lysates (NADPH-coupled)
# Type: biochemical
# Design: endogenous in cells; host or cells: A-673 cell lysate
# Conditions: 20 μM; generation 2
# Description: Determination of GPX4 activity in cell lysates was performed as previously described by Roveri et al. 1994 with minor modifications. Briefly, the assay measures the consumption of NADPH, which has a characteristic absorbance at 340 nm, over time as a proxy for GPX4 activity. The rationale for this is that as GPX4 reduces phospholipid hydroperoxides, it oxidizes glutathione, which is then regenerated by glutathione reductase at the expense of NADPH. NADPH is added to the assay in excess such that the reduction of oxidized glutathione is not the rate-limiting reaction in the assay. Thus, the resulting reduction in NADPH absorbance over time reflects GPX4 activity.
# The GPX4-specific substrate phosphatidylcholine hydroperoxide (PCOOH) was prepared by enzymatic hydroperoxidation. Specifically, 0.3 mM phosphatidylcholines (Sigma-Aldrich) were incubated with 0.7 mg soybean lipoxidase type IV (Sigma-Aldrich) in 22 mL of 0.2 M Tris-HCl pH 8.8 with 3 mM sodium deoxycholate at room temperature under continuous stirring for 30 minutes. A Sep-Pak C18 cartridge (Waters-Millipore) was pre-washed with methanol and equilibrated with water, then the substrate mixture was loaded. The column was washed with 10 volumes of water and PCOOH was eluted with 2 mL of methanol.
# To prepare the cell lysate containing native GPX4, A-673 cells were cultured with 20 nM sodium selenite to confluency over two days then harvested and washed with cold PBS. Cells were then resuspended at 10 million cells per 1 mL LCW lysis buffer (0.5% peroxide-free Triton X-100, 0.5% sodium deoxycholate salt, 150 mM NaCl, 20 mM Tris-HCl pH 7.5, 10 mM EDTA, 30 mM sodium pyrophosphate, and complete protease inhibitor cocktail), vortexed for 30 seconds, and incubated on ice for 15 minutes. After lysis, the lysates were centrifuged at 14,000×g and 4° C. for 15 minutes. The supernatants were transferred to new pre-chilled tube and the debris pellet was discarded. The protein concentration in the lysate was determined for normalization using the BCA Protein Assay Kit (Pierce).
# To measure GPX4 activity, 50 μL of cell lysate was combined with 200 μL activity assay buffer (0.1% Triton X-100, 100 mM Tris-HCl pH 8.0, 10 mM sodium azide, 5 mM EDTA, 0.6 IU/mL glutathione reductase, 0.5 mM NADPH and 3 mM GSH) and compounds of interest in a clear 96-well plate and incubated at 37° C. for 45 minutes. Compounds were dissolved in DMSO. All conditions were tested in triplicate. PCOOH substrate was added to the mixture to initiate GPX4 activity just before reading the plate. The absorbance of NADPH at 340 nm was monitored kinetically over time for 25 minutes. Buffer-only controls and controls without substrate containing only the methanol vehicle were performed to assess background and baseline signal. GPX4 activity was calculated as previously reported by Stolwijk et al. 2020 and results were analyzed in GraphPad Prism 9.
row,GPX4% inhibition at 20 (μM) [%],SMILES
1,0.5 ± 5.4,Cn1nc(C(=O)N2CCN(C(=O)CCl)CC2)c2ccccc21 [QW-370]
2,2.9 ± 2.2,Cc1onc(C(=O)N2CCN(C(=O)c3nn(C)c4ccccc34)CC2)c1[N+](=O)[O-] [QW-371]
3,1.6 ± 3.0,Cn1nc(C(=O)NC(C)(C)COC(=O)C(F)Cl)c2ccccc21 (stereo not drawn) [QW-374]

# Same assay, conditions: 200 μM
row,GPX4 inhibition [%],SMILES
1,76,CC(C)(COC(=O)CCl)NC(=O)c1c[nH]c2ccccc12 [QW-280]

# Same assay, conditions: 200 μM; generation 1; mean ± s.d., n = 3
row,SMILES,GPX4% inhibition at 200 (μM) [%]
1,CC(C)(COC(=O)CCl)NC(=O)c1cccs1 [QW-259],27.7 ± 26.1
2,CC(C)(COC(=O)CBr)NC(=O)c1cccs1 [QW-260],41.1 ± 4.6
3,Cc1onc(C(=O)OCC(C)(C)NC(=O)c2cccs2)c1[N+](=O)[O-] [QW-262],−0.6 ± 7.8
4,CC(C)(COC(=O)CCl)NC(=O)Cc1cc2ccccc2[nH]1 [QW-265],61.2 ± 11.3
5,CC(C)(COC(=O)CBr)NC(=O)Cc1cc2ccccc2[nH]1 [QW-266],48.8 ± 3.3
6,Cc1onc(C(=O)OCC(C)(C)NC(=O)Cc2cc3ccccc3[nH]2)c1[N+](=O)[O-] [QW-268],−8.0 ± 15.8
7,CC(C)(COC(=O)CCl)NC(=O)CCc1cc2ccccc2[nH]1 [QW-270],65.5 ± 1.6
8,CC(C)(COC(=O)CBr)NC(=O)CCc1cc2ccccc2[nH]1 [QW-271],40.2 ± 5.2
9,CC(C)(COC(=O)CCl)NC(=O)c1cc2ccccc2s1 [QW-274],27.5 ± 4.4
10,CC(C)(COC(=O)CBr)NC(=O)c1cc2ccccc2s1 [QW-275],63.1 ± 3.6
11,Cc1onc(C(=O)OCC(C)(C)NC(=O)c2cc3ccccc3s2)c1[N+](=O)[O-] [QW-277],12.4 ± 20.1
12,CC(C)(COC(=O)CCl)NC(=O)c1c[nH]c2ccccc12 [QW-280],75.9 ± 15.5
13,CC(C)(COC(=O)CBr)NC(=O)c1c[nH]c2ccccc12 [QW-281],58.7 ± 11.5
14,Cc1onc(C(=O)OCC(C)(C)NC(=O)c2c[nH]c3ccccc23)c1[N+](=O)[O-] [QW-283],−6.6 ± 8.5
15,COc1ccc2cc(C(=O)NC(C)(C)CCOC(=O)CBr)[nH]c2c1 [QW-285],77.9 ± 7.6
16,CC(C)(COC(=O)CCl)NC(=O)c1ccc[nH]1 [QW-290],20.6 ± 9.0
17,CC(C)(COC(=O)CBr)NC(=O)c1ccc[nH]1 [QW-291],20.0 ± 4.0
18,Cc1onc(C(=O)OCC(C)(C)NC(=O)c2ccc[nH]2)c1[N+](=O)[O-] [QW-293],−13.1 ± 14.6
19,COc1ccc2cc(C(=O)NCC(C)(C)COC(=O)CCl)[nH]c2c1 [QW-302],68.9 ± 1.8
20,COc1ccc2cc(C(=O)NC(C)(C)COC(=O)CCl)n(C)c2c1 [QW-320],84.3 ± 9.3
21,Cn1c(C(=O)NC(C)(C)COC(=O)CCl)cc2ccc(Br)cc21 [QW-321],90.3 ± 4.8
22,COc1ccc2[nH]cc(C(=O)NC(C)(C)COC(=O)CCl)c2c1 [QW-322],16.0 ± 4.9
23,Cn1cc(C(=O)NC(C)(C)COC(=O)CCl)c2ccc(Br)cc21 [QW-325],76.6 ± 3.9
24,Cn1cc(C(=O)NC(C)(C)COC(=O)C#C[Si](C)(C)C)c2ccc(Br)cc21 [QW-337],67.2 ± 3.4

# Other lines, results leading:
row,GPX4% inhibition at 200 (μM) [%],SMILES
1,56.0 ± 7.3,COc1cccc2[nH]c(C(=O)NC(C)(C)COC(=O)CBr)cc12 [QW-159]
2,33.3 ± 6.0,CC(C)(COC(=O)CBr)NC(=O)c1cc2ccccc2[nH]1 [QW-160]
3,65.0 ± 7.2,Cc1ccc2[nH]c(C(=O)NC(C)(C)COC(=O)CBr)cc2c1 [QW-161]
4,103.8 ± 7.6,COc1ccc2cc(C(=O)NC(C)(C)COC(=O)CBr)[nH]c2c1 [QW-162]
5,73.9 ± 5.3,CC(C)(COC(=O)CBr)NC(=O)c1cc2cc(Cl)ccc2[nH]1 [QW-165]
6,1.8 ± 8.0,C=CC(=O)OCC(C)(C)NC(=O)c1cc2ccccc2[nH]1 [QW-166]
7,7.8 ± 12.8,C=CC(=O)OCC(C)(C)NC(=O)c1cc2cc(Cl)ccc2[nH]1 [QW-167]
8,−8.8 ± 10.8,C=CC(=O)OCC(C)(C)NC(=O)c1cc2c(OC)cccc2[nH]1 [QW-168]
9,14.0 ± 8.6,C=CC(=O)OCC(C)(C)NC(=O)c1cc2ccc(Br)cc2[nH]1 [QW-169]
10,5.3 ± 10.0,C=CC(=O)OCC(C)(C)NC(=O)c1cc2cc(C)ccc2[nH]1 [QW-170]
11,16.1 ± 16.0,C=CC(=O)OCC(C)(C)NC(=O)c1cc2cc([N+](=O)[O-])ccc2[nH]1 [QW-172]
12,23.2 ± 17.0,C=CC(=O)OCC(C)(C)NC(=O)c1cccs1 [QW-261]
13,14.7 ± 5.7,C=CC(=O)OCC(C)(C)NC(=O)Cc1cc2ccccc2[nH]1 [QW-267]
14,5.9 ± 4.4,C=CC(=O)OCC(C)(C)NC(=O)c1cc2ccccc2s1 [QW-276]
15,12.7 ± 4.7,C=CC(=O)OCC(C)(C)NC(=O)c1c[nH]c2ccccc12 [QW-282]
16,71.0 ± 22.2,COc1ccc2cc(C(=O)NC(C)(C)CCOC(=O)CCl)[nH]c2c1 [QW-284]
17,11.5 ± 7.1,C=CC(=O)OCCC(C)(C)NC(=O)c1cc2ccc(OC)cc2[nH]1 [QW-286]
18,7.9 ± 5.3,C=CC(=O)OCC(C)(C)NC(=O)c1ccc[nH]1 [QW-292]
19,3.3 ± 1.2,C=CC(=O)OCCNC(=O)c1cc2ccc(OC)cc2[nH]1 [QW-301]
20,78.3 ± 4.3,O=C(CCl)OCCCNC(=O)c1cc2cc(Cl)ccc2[nH]1 [QW-304]
21,6.2 ± 7.5,C=CC(=O)OCCCNC(=O)c1cc2cc(Cl)ccc2[nH]1 [QW-306]
22,42.6 ± 7.0,CC(C)(COC(=O)CCl)NC(=O)c1cc2cc(F)ccc2[nH]1 [QW-338]
23,43.4 ± 11.5,CC(C)(COC(=O)CCl)NC(=O)c1cc2cc(F)c(F)cc2[nH]1 [QW-339]
24,69.6 ± 6.2,CC(C)(COC(=O)CCl)NC(=O)c1cc2ccc(F)cc2[nH]1 [QW-353]

# Same assay, conditions: 200 μM; generation 2
row,SMILES,GPX4% inhibition at 200 (μM) [%]
1,CC(C)(COC(=O)CCl)NC(=O)c1n[nH]c2ccccc12 [QW-296],83.1 ± 21.9
2,CC(C)(COC(=O)CBr)NC(=O)c1n[nH]c2ccccc12 [QW-297],73.1 ± 14.6
3,Cc1onc(C(=O)OCC(C)(C)NC(=O)c2n[nH]c3ccccc23)c1[N+](=O)[O-] [QW-299],6.3 ± 4.7
4,COc1ccc2c(C(=O)NC(C)(C)COC(=O)CCl)n[nH]c2c1 [QW-326],84.3 ± 8.9
5,Cn1nc(C(=O)N2CCN(C(=O)CCl)CC2)c2ccc(Br)cc21 [QW-330],33.2 ± 6.8
6,Cc1onc(C(=O)OCC(C)(C)NC(=O)c2nn(C)c3ccccc23)c1[N+](=O)[O-] [QW-363],−15.4 ± 8.4
7,Cn1nc(C(=O)NC(C)(C)COC(=O)C#C[Si](C)(C)C)c2ccccc21 [QW-367],7.0 ± 3.9

# Further lines, results first:
row,GPX4% inhibition at 200 (μM) [%],SMILES
1,7.9 ± 8.2,C=CC(=O)OCC(C)(C)NC(=O)c1n[nH]c2ccccc12 [QW-298]
2,−7.3 ± 0.5,C=CC(=O)OCC(C)(C)NC(=O)c1nn(C)c2ccccc12 [QW-366]

# Same assay, conditions: 200 μM; mean ± s.d., n = 3
row,GPX4% inhibition at 200 (μM) [%],SMILES
1,18.7 ± 15.8,O=C(c1cc2cc(Cl)ccc2[nH]1)n1ccnc1 [QW-002]
2,−2.6 ± 14.6,O=C(c1cc2cc([N+](=O)[O-])ccc2[nH]1)n1ccnc1 [QW-049]
3,32.7 ± 18.4,Cc1ccc2[nH]c(C(=O)n3ccnc3)cc2c1 [QW-056]
4,37.8 ± 0.9,O=C(c1c[nH]c2ccccc12)n1ccnc1 [QW-058]
5,31.9 ± 16.6,O=C(c1cc2ccccc2[nH]1)n1ccnc1 [QW-064]
